From PubChem BioAssay (NCI)
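Cells were grown in 96-well plates and exposed to each compound for 48 hours at five concentrations; endpoints were interpolated linearly between bracketing concentrations, or set to the highest concentration if not reached. The concentration for full growth arrest is given as TGI.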 Where a SMILES comes first, the peptide text is derived from it. Bridges are numbered along the chain shown (N, C = ends). [ ]: non-standard residue; d: D form. The star is where a group is joined. Fmoc = O=C(OCC1c2ccccc2-c2ccccc21)*; Aib = CC(C)(N)C(=O)O; OtBu = CC(C)(C)O*; βAla = NCCC(=O)O

Legend:
Assay in all cases: NCI tumour cell line growth inhibition, 48 h
KM12 colon = tested on: KM12 colon
SK-MEL-5 melanoma = tested on: SK-MEL-5 melanoma
IGROV1 ovarian = tested on: IGROV1 ovarian
T-47D breast = tested on: T-47D breast
UACC-257 melanoma = tested on: UACC-257 melanoma
NCI-H23 lung = tested on: NCI-H23 lung
NCI-H522 lung = tested on: NCI-H522 lung
OVCAR-5 ovarian = tested on: OVCAR-5 ovarian
OVCAR-8 ovarian = tested on: OVCAR-8 ovarian
SF-268 CNS = tested on: SF-268 CNS
DU-145 prostate = tested on: DU-145 prostate
MDA-N = tested on: MDA-N
BT-549 breast = tested on: BT-549 breast

Structure (SMILES) | TGI (KM12 colon) | TGI (SK-MEL-5 melanoma) | TGI (IGROV1 ovarian) | TGI (T-47D breast) | TGI (UACC-257 melanoma) | TGI (NCI-H23 lung) | TGI (NCI-H522 lung) | TGI (OVCAR-5 ovarian) | TGI (OVCAR-8 ovarian) | TGI (SF-268 CNS) | TGI (DU-145 prostate) | TGI (MDA-N) | TGI (BT-549 breast)
CC(=O)O[C@@H]1C[C@]2(C(=O)c3ccccc3)C(=O)C(=O)S[C@]12c1ccccc1 | > 100 µM | > 100 µM | > 100 µM | 94.3 µM | > 100 µM | > 100 µM | > 100 µM | > 100 µM | > 100 µM | > 100 µM | > 100 µM | > 100 µM | > 100 µM
Cc1cc(S(=O)(=O)NC2=NCc3nc4ccccc4n32)c(S)cc1Cl | 38 µM | 32.1 µM | 69.7 µM | 50.3 µM | 62.2 µM |  | > 100 µM | 65.1 µM | > 100 µM | > 100 µM | > 100 µM | 58.1 µM | 71.9 µM
CCOC1CN=C(Nc2cccc3ccccc23)S1 (stereo not given) | > 10 µM | > 10 µM | > 10 µM | > 10 µM | > 10 µM | > 10 µM | > 10 µM | > 10 µM | > 10 µM | > 10 µM | > 10 µM | > 10 µM | > 10 µM
CC(/C=C/C(=O)NO)=C\C(C)C(=O)c1ccc(N(C)C)cc1 (stereo not given) | 0.932 µM | 0.187 µM | 0.28 µM | > 100 µM | 0.387 µM | 4 µM | < 0.0129 µM | 4.6 µM | 41.6 µM | 0.195 µM | 0.0792 µM | 11.5 µM | > 60.4 µM
C[C@H](C1CC(C)(O)C(C)(O)C(O)O1)[C@H]1CC[C@H]2[C@@H]3[C@@H]4O[C@@H]4[C@@]4(O)CC=CC(=O)[C@]4(C)[C@H]3CC[C@]12C (stereo not given in full) | > 50 µM | > 50 µM | > 50 µM | > 50 µM | > 50 µM | > 50 µM | > 50 µM | > 50 µM | > 50 µM | > 50 µM | > 50 µM | > 50 µM | > 50 µM
O=C(C=P(c1ccccc1)(c1ccccc1)c1ccccc1)c1ccc(-c2cccs2)cc1 | 15 µM | 5.25 µM | 21.2 µM | 9.61 µM | 6.35 µM | 56.2 µM | 12 µM | 17.7 µM | 17.8 µM | 27.1 µM | 22.3 µM | 11.7 µM | 40.7 µM
CC1(C)NC(=O)C(NC(=O)C(N)CC(=O)O)CCCCNC(=O)CCNC1=O (stereo not given) (H-DK[Aib][βAla]; lactam 2-C; configuration not given here) | > 100 µM | > 100 µM | > 100 µM | > 100 µM | > 100 µM | > 100 µM | > 100 µM | > 100 µM | > 100 µM | > 100 µM | > 100 µM | > 100 µM | > 100 µM
C=C(Cl)C(Cl)(CBr)CCC(Br)C(C)(C)Br (stereo not given) | 3.45 µM | 30.2 µM | 37.3 µM | 7.42 µM | 4.4 µM | 31.5 µM | 19.3 µM | 25.4 µM | 13.9 µM | 10.7 µM | 11.9 µM | 21.2 µM | 20.8 µM
Nc1nc(Cl)cc(NCC2(O)CCC2)n1 | > 100 µM | > 100 µM | > 100 µM | > 100 µM | > 100 µM | > 100 µM | > 100 µM | > 100 µM | > 100 µM | > 100 µM | > 100 µM | > 100 µM | > 100 µM
CCOC(=O)c1cc(C2CCN(c3ccccc3)C2=O)c(/C(O)=C/C(C)=O)[nH]1 (stereo not given) | > 100 µM | > 100 µM | > 100 µM | > 100 µM | > 100 µM | > 100 µM | > 100 µM | > 100 µM | > 100 µM | > 100 µM | > 100 µM | > 100 µM | > 100 µM
CC[C@]12C=CCN3CC[C@@]4(c5cc(N=O)c(OC)cc5N(C)[C@H]4[C@@](O)(C(=O)OC)[C@@H]1OC(C)=O)[C@@H]32 | > 100 µM | > 100 µM | > 100 µM | > 100 µM | > 100 µM | > 100 µM | 36.5 µM | > 100 µM | > 100 µM | > 100 µM | > 100 µM | 48.5 µM | > 100 µM
COc1ccc(N=c2oc3ccccc3cc2C(N)=O)cc1 | > 100 µM | > 100 µM | > 100 µM | > 100 µM | > 100 µM | > 100 µM | 93.1 µM |  | > 100 µM | 42.6 µM | > 100 µM | > 100 µM | > 100 µM
CC(C)C(NC(=O)OCC1c2ccccc2-c2ccccc21)C(=O)NC(CCC(=O)OC(C)(C)C)C(=O)OC(C)(C)C (stereo not given) (Fmoc-Val-Glu(OtBu)-OtBu; configuration not given here) | > 100 µM | > 100 µM | > 100 µM | > 72.7 µM | > 100 µM | > 100 µM | > 100 µM | > 100 µM | > 100 µM | > 100 µM | > 100 µM | > 100 µM | > 100 µM
O=C(Nc1ccccc1)c1cc(S(=O)(=O)Nc2n[nH]c(=O)n2-c2ccccc2)c(S)cc1Cl | > 100 µM | > 100 µM | > 100 µM | > 100 µM | > 100 µM |  | > 100 µM | > 100 µM | > 100 µM | > 100 µM | > 100 µM | > 100 µM | > 100 µM
Cc1[nH]c(=O)nc2nc3cc(Cl)cc(Cl)c3c(NC(C)(CO)CO)c12 | > 100 µM | > 100 µM | > 100 µM | > 100 µM | > 100 µM | > 100 µM | > 100 µM |  | > 100 µM | > 100 µM | > 100 µM | > 100 µM | > 100 µM
O=C1/C(=C\c2ccc(Cl)cc2)N=C(c2ccccc2)N1n1c(=O)cn[nH]c1=S | > 100 µM | 55.3 µM | 66.1 µM | 28.6 µM | > 100 µM | 43.6 µM | 37.2 µM | > 100 µM | 45.8 µM |  | 58.3 µM | > 100 µM | 92.3 µM
N#C/C(=C\c1ccc(F)cc1)c1nc(-c2cc3ccccc3oc2=O)cs1 | > 100 µM | 41.6 µM | 85 µM | > 100 µM | 65.9 µM |  | 74.4 µM | > 100 µM | 71.9 µM | 46.2 µM | > 100 µM | > 100 µM | 24.8 µM
